Values quoted from earlier work as cited in patent publication US20080113949A1, “Use of dipyridamole in combination with acetylsalicylic acid and an angiotensin II antagonist for stroke prevention” (priority 2003, published 2008).

Settings: clinical study ESPS-2; compared with aspirin

For OCCN(CCO)c1nc(N2CCCCC2)c2nc(N(CCO)CCO)nc(N3CCCCC3)c2n1 [dipyridamole, 2,6-bis(diethanolamino)-4,8-dipiperidino-pyrimido[5,4-d]pyrimidine], the “reduction of stroke risk” value is given as “as effective as low-dose aspirin”.
